Source: PubChem BioAssay (NCI)
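96-well plates; 48 h exposure; 5 concentrations. Endpoints by linear interpolation between flanking doses. Not reached: highest tested concentration assigned. Definition used: TGI = concentration required for complete inhibition of growth.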

Assays:
Test in all cases: NCI tumour cell line growth inhibition, 48 h
HS 578T breast = tested on: HS 578T breast
KM12 colon = tested on: KM12 colon
M14 melanoma = tested on: M14 melanoma
NCI-H23 lung = tested on: NCI-H23 lung
OVCAR-3 ovarian = tested on: OVCAR-3 ovarian
PC-3 prostate = tested on: PC-3 prostate
SF-295 CNS = tested on: SF-295 CNS
SF-539 CNS = tested on: SF-539 CNS
SR leukemia = tested on: SR leukemia
SW-620 colon = tested on: SW-620 colon
T-47D breast = tested on: T-47D breast

Row | Compound | TGI (HS 578T breast) | TGI (KM12 colon) | TGI (M14 melanoma) | TGI (NCI-H23 lung) | TGI (OVCAR-3 ovarian) | TGI (PC-3 prostate) | TGI (SF-295 CNS) | TGI (SF-539 CNS) | TGI (SR leukemia) | TGI (SW-620 colon) | TGI (T-47D breast)
1 | Cn1nnnc1SC(F)(F)c1nc2ccccc2o1 | > 100 µM | > 100 µM | > 100 µM | > 100 µM | > 100 µM | > 100 µM | > 100 µM | > 100 µM | > 100 µM | > 100 µM | > 100 µM
2 | COc1cc(Nc2nc3cc(C(F)(F)F)ccc3nc2C(=O)O)cc(OC)c1OC | > 100 µM | > 100 µM | > 100 µM | > 100 µM | > 100 µM | – | 67.8 µM | > 100 µM | – | > 100 µM | > 100 µM
3 | CC(=O)Nc1c(C(=N)C#N)ncn1CCO | > 100 µM | > 100 µM | > 100 µM | > 100 µM | > 100 µM | > 100 µM | > 100 µM | > 100 µM | – | > 100 µM | > 100 µM
4 | CCOC(=O)CCC(NC(=O)c1ccc(NCc2ccc3nc(-c4ccccc4)c(Cl)nc3c2)cc1)C(=O)OCC (centres undefined) | – | > 100 µM | 39.5 µM | > 100 µM | 59.2 µM | – | > 100 µM | > 100 µM | > 100 µM | > 100 µM | –
5 | Nc1c(S(=O)(=O)c2ccccc2)c2nc3ccccc3nc2n2c1nc1ccccc12 | – | > 100 µM | > 31.6 µM | > 50 µM | > 100 µM | – | > 53.4 µM | > 53.9 µM | > 100 µM | > 100 µM | –
6 | CC1CC(Nc2ccc(Br)cc2)N(C(=O)c2ccc(Br)cc2)O1 (centres undefined) | > 10 µM | – | > 10 µM | > 10 µM | > 10 µM | > 10 µM | > 10 µM | > 10 µM | > 10 µM | > 10 µM | > 10 µM
7 | C[n+]1c2ccccc2c(NC(CCCN=C(N)N)C(=O)O)c2ccccc21 (centres undefined) | – | > 100 µM | > 100 µM | > 100 µM | > 100 µM | – | > 100 µM | > 100 µM | > 100 µM | > 100 µM | –
8 | CC(NC(=O)c1c(O)[nH]c(=S)[nH]c1=O)c1ccc([N+](=O)[O-])cc1 (centres undefined) | > 100 µM | > 100 µM | > 100 µM | > 100 µM | > 100 µM | > 100 µM | > 100 µM | > 100 µM | – | > 100 µM | > 100 µM
9 | Cc1[nH]n(-c2nc(O)c(-c3ccccc3)c(=O)[nH]2)c(=O)c1CCO | > 100 µM | > 100 µM | > 100 µM | > 100 µM | – | > 100 µM | > 100 µM | > 100 µM | > 100 µM | > 100 µM | > 100 µM
10 | CC(=O)NC1C(Sc2ncn(C3OC(CO)C(O)C(O)C3NC(C)=O)n2)OC(CO)C(O)C1O (centres undefined) | > 100 µM | > 100 µM | > 100 µM | > 100 µM | > 100 µM | > 100 µM | > 100 µM | > 100 µM | – | > 100 µM | > 100 µM
